In US11117919B2, “Icariside compound, preparation method thereof, and application thereof” (FOSHAN GOLDEN HEALTH TECHNOLOGY CO., LTD., priority 2015, dated 2021):

How the values were obtained:
[1] = system: human peripheral blood mixed lymphocytes; experiment: IFN-γ production in mixed lymphocyte culture (MLC) reaction; assay type: cell-based; details: 120 h
Experimental: Effect of icariside I on promotion of γ-interferon (interferon-gamma, IFN-γ) production by human peripheral blood mixed lymphocytes during culture (an experimental model mimicking enhancing immunity in human body).
(1) Preparation of human peripheral blood mononuclear cells (PBMCs): following the method in Example 5 (2), peripheral blood PBMCs from two normal human were prepared.
Cell concentrations of freshly isolated peripheral blood mononuclear cells (PBMCs) were adjusted to […] with RPMI1640 complete medium. Then, lymphocytes from two healthy human with equal volumes were mixed to maintain a total cell concentration of […]. Different concentrations (in a gradient) of or no icariside I were added thereto (with final concentration of 100 ng/ml, 1000 ng/ml) followed by fully mixing. Then the cells after stimulation were seeded and cultured in a 96-well round-bottom culture plate. The cell concentration per well was maintained at 2×10^5/ml (200 μl/well) and was incubated at 37° C. with 5% CO2 for 120 h in an incubator. The levels of cytokine IFN-γ were detected.
According to the method stated in Example 5 (4), the γ-interferon generated from human peripheral blood mixed lymphocyte culture (MLC) was detected.
Equal cell concentrations of lymphocytes from healthy human were mixed cultured for five days (120 h). The pharmaceutical icariside I was added (in a gradient of different pharmaceutical concentrations) or not added. […] Among them, the human lymphocyte A control is a group of samples containing only one kind of human lymphocyte, while human lymphocyte B control is a group of samples containing two kinds of human lymphocytes, that is, a control group in which two kinds of human lymphocytes were mixed for culture without adding icariside I. The concentrations of icariside I added were 0.1 and 1 μg/ml respectively. *P<0.05; **P<0.01. […]
Cell concentrations of freshly isolated peripheral blood mononuclear cells (PBMCs) were adjusted to 5×10^5/ml with RPMI1640 complete medium. […] The level of cytokine IFN-γ produced was then detected.

[2] = system: xenograft tumor; experiment: Xenograft tumor growth in nude mice; assay type: in vivo, BALB/c (nu/nu) female nude mice; details: intraperitoneal 0.02 and 0.1 mg/10 g every 2 days, 30-day period
Experimental: The test used 4-6 weeks old BALB/c (nu/nu) female nude mice weighed 18-22 g fed in a SPF clean room with free access to food and water. […] When the tumor grew to the initial volume for administration with a pharmaceutical (100 mm^3), these mice were divided into groups with 10 mice for each group. For each group, nude mice were injected intraperitoneally: (1) the blank control group was injected with 0.1 ml/10 g solvent (5% DMSO+95% physiological saline); […] The administration was conducted every 2 days in a 30-day period. Vernier caliper was used to measure the largest longitudinal diameter (L) and transverse diameter (S) of tumor every two days. The approximate volume of the tumor was calculated with the equation of V (cm^3)=0.5×L× S^2 to plot a tumor growth curve. After the pharmaceutical treatment, the tumor was stripped and weighed for record.

[3] = system: PFMCs from TB infected patients; experiment: IFN-γ production by pleural fluid cells (PFMCs) of tuberculosis patients; assay type: cell-based, human; details: 0.1, 0.5, 1 μg/ml, 48 h
Experimental: (2) Isolation of Pleural fluid cells (PFMCs, namely cells stimulated by tuberculosis bacteria infection) from patients suffering from tuberculosis: blood samples were taken from volunteers (vein blood of TB patients) and then anticoagulated with heparin and diluted with an equal volume of Hank's solution. The solution was centrifuged once (1800 rpm, 22° C. 8 minutes). After removal of the supernatant, an appropriate amount of ELS (erythrocyte lysate) was added for re-suspension. After 3-5 minutes, an appropriate amount of Hank's solution was added for stop and then the mixture was centrifuged twice (1800 rpm, 22° C. 8 minutes), followed by addition of RPMI1640 complete medium to adjust the PBMC cell concentration to 2×10^9 cells/L.
(3) PBMCs and PFMCs cell culture (MLC) with stimulation by a pharmaceutical: Icariside I was used at concentrations of 0.1 μg/ml, 0.5 μg/ml, and 1 μg/ml respectively to stimulate PBMCs and PFMCs under the incubation condition at 37° C. with 5% CO2 for 48 hours.
(4) ELISA assay for analysis of IFN-γ: according to the method stated in Example 5 (4), the levels of γ-interferon produced by PBMCs and PFMCs after culture with pharmaceutical stimulations were measured. […]

[4] = assay type: in vivo; details: observation for 14 days
Experimental: Mice weighed 18-22 grams were randomly divided into six groups with 10 mice each group. Each individual group of mice were treated (orally) with: physiological saline, DMSO 2.5 ml/kg, and icariside I: 2000 mg/kg, 1000 mg/kg, 500 mg/kg, 100 mg/kg respectively. […] Therefore, the acute toxicity of icariside I is very low which is safe for use in preparation of pharmaceuticals, health products, food, and cosmetic and skin care products for prevention and treatment of immunity-related diseases.

COc1ccc(-c2oc3c(CC=C(C)C)c(O[C@@H]4O[C@H](CO)[C@@H](O)[C@H](O)[C@H]4O)cc(O)c3c(=O)c2O)cc1 [icariside I]
promotion of generation of IFN-γ in the mixed lymphocyte culture ([1]; 100 and 1000 ng/ml, dose dependent): up to 300%
ability to promote human γ-interferon production in mixed lymphocyte culture ([1]; final concentration 1000 ng/ml): best ability
growth and development of the transplanted tumor mass in nude mice [2]: significantly inhibit
effect on PFMCs in producing IFN-γ [3]: significant and dose dependent effect
acute toxicity LD50 ([4]; mice, oral): greater than 2000 mg/kg
deaths of test mice ([4]; oral 100-2000 mg/kg): none of the test mice died
